Laboratory results: patent US20260092868A1, “METHOD FOR SCREENING FOR AUTOPHAGY MODULATOR” (THE ASAN FOUNDATION, priority 2022, published 2026)

Tests used:
SEC62 = test: Colocalization of ER-phagy receptors with LC3 by immunofluorescence (IF); assay type: cell-based; settings: 10 μM thapsigargin, IF (FIG. 7)
Description: (§1) To measure the activation levels of an autophagy marker and an ER-phagy marker after treatment with thapsigargin, the colocalization of ER-phagy receptors was measured.
(§2) More specifically, after treatment with thapsigargin (10 μM), the activation of CCPG1, FAM134B, RTN3, and SEC62 was examined by immunofluorescence (IF) analysis, and then the results thereof are shown in FIG. 7.

FAM134B = test: as above; assay type: cell-based; settings: 10 μM thapsigargin, IF (FIG. 7)
Description: as §1, §2

RTN3 = test: as above; assay type: cell-based; settings: 10 μM thapsigargin, IF (FIG. 7)
Description: as §1, §2

CCPG1 = test: as above; assay type: cell-based; settings: 10 μM thapsigargin, IF (FIG. 7)
Description: as §1, §2

SNU475 cells [1] = test: Fluorescent tracker (ER-tracker, lysosome-tracker, mito-tracker) imaging by super-resolution microscopy (Airyscan); assay type: cell-based, human
Description: Changes in the endoplasmic reticulum and lysosomes were measured using a confocal microscope and fluorescent trackers. As the fluorescent trackers, ER-tracker, which enables the specific observation of only the endoplasmic reticulum, and lysosome-tracker, which enables the specific observation of only lysosomes, were used.
Specifically, SNU475 cells were treated with thapsigargin (10 μM) and then stained with ER-tracker or lysosome-tracker, the kinetics of the endoplasmic reticulum and lyosomes were analyzed by super-resolution microscopy (Airyscan), and the results thereof are shown in FIG. 5.
To confirm that high-density vesicles produced upon treatment with thapsigargin are specific to the endoplasmic reticulum, the kinetics of mitochondria were analyzed in the same manner as in 4.1 above by using mito-tracker, which is a mitochondria-specific tracker, and the results thereof are shown in FIG. 6.

SNU475 cells [2] = test: ODT setup linking three-dimensional ODT imaging and two-dimensional fluorescence; assay type: cell-based, human; settings: SNU475 cells after treatment with thapsigargin, ODT plus 2D fluorescence
Description: Additionally, changes in the endoplasmic reticulum and lysosomes in SNU475 cells treated with thapsigargin were analyzed using an ODT setup that can link three-dimensional ODT imaging and two-dimensional fluorescence. […] It was also confirmed that vesicles were produced in the ER region, followed by fusion with lysosomes.

SNU475 cells [3] = test: Optical diffraction tomography (ODT) imaging of vesicles and organelles in SNU475 cells; assay type: cell-based, human
Description: To confirm changes in vesicles upon treatment with an autophagy modulator, SNU475 cells, which are a human hepatoma cell line, were treated with 10 μM thapsigargin, which is an autophagy activator, and then the changes in vesicles in the cells were examined.
More specifically, a SNU475 cell line was prepared in a TomoDish and the SNU475 cells were treated with 10 μM thapsigargin, and then optical diffraction tomography (ODT) images were generated by using HT-2H fluorescence holotomography (Tomocube).
SNU475 cells were treated with 10 μM thapsigargin to induce ER stress, and then changes in the refractive index and radius of vesicles produced in the cells were measured on the basis of images confirmed in Example 1, and the results thereof are shown in FIG. 2. In addition, SNU475 cells were treated with 10 μM thapsigargin, and the number and volume of vesicles in the SNU475 cells treated with thapsigargin were observed over time for 2 hours, and the results thereof are shown in FIG. 3.
To confirm statistical changes in the density and refractive index of vesicles and organelles upon treatment with thapsigargin, the densities and refractive indices of cells before and after SNU475 cells were treated with thapsigargin (10 μM) were compared. In addition, to confirm changes in the densities of organelles upon treatment with thapsigargin, the refractive indices of a nucleolus (No), an endoplasmic reticulum (ER), a cytosol (Cyt), and a plasma membrane (PM) were measured.
To confirm whether the same results as the case of thapsigargin can be obtained upon treatment with autophagy modulators other than thapsigargin, SNU475 cells were treated with each of CPA (20 μM) and TC (60 ug/mL) to induce ER stress, and then changes in vesicles produced in the cells were observed using HT-2H fluorescence holotomography (Tomocube). For observation, optical diffraction tomography (ODT) images 10 hours after treatment with CPA and ODT images 2 hours after treatment with TC were generated, and the results thereof are shown in FIG. 8.

[4] = 10 μM thapsigargin, observed for 2 hours (FIG. 3)

| Compound | activation of SEC62 through colocalization with LC3 (SEC62) | activation of FAM134B through colocalization with LC3 (FAM134B) | activation of RTN3 through colocalization with LC3 (RTN3) | activation of CCPG1 through colocalization with LC3 (CCPG1) | production of vesicles and lysosomes containing ER components (SNU475 cells [1]; 10 μM thapsigargin, ER-tracker or lysosome-tracker (FIG. 5)) | time difference of production of large lysosomes relative to the ER (SNU475 cells [1]; 10 μM thapsigargin, lysosome-tracker (FIG. 5B)) | mitochondrial components in high-density vesicles (SNU475 cells [1]; thapsigargin, mito-tracker (FIG. 6)) | colocalization of high-density vesicles produced in the cytoplasm (SNU475 cells [2]) | change in the refractive index of vesicles over time (SNU475 cells [3]; 10 μM thapsigargin (FIG. 2A)) | change in the radius of vesicles over time (SNU475 cells [3]; 10 μM thapsigargin (FIG. 2B)) | ER-phagy induction (SNU475 cells [3]; 10 μM thapsigargin (FIG. 4)) | density of induced vesicles compared with the endoplasmic reticulum (SNU475 cells [3]; 10 μM thapsigargin (FIG. 4)) | generation of high-density vesicles (SNU475 cells [3]; 10 μM thapsigargin, ODT images (FIG. 1)) | change in the total number of vesicles over time (SNU475 cells [3]; [4]) | change in volume of vesicles over time (SNU475 cells [3]; [4]) | density of the endoplasmic reticulum upon treatment (SNU475 cells [3]; before and after 10 μM thapsigargin (FIG. 4C)) | change in vesicles (SNU475 cells [3]; TC 60 ug/mL, ODT images 2 hours after treatment (FIG. 8B)) |
| --- | --- | --- | --- | --- | --- | --- | --- | --- | --- | --- | --- | --- | --- | --- | --- | --- | --- |
| C/C=C(/C)C(=O)O[C@H]1C(C)=C2[C@H]([C@@H]1OC(=O)CCCCCCC)[C@@](C)(OC(C)=O)C[C@H](OC(=O)CCC)[C@@]1(O)[C@H]2OC(=O)[C@@]1(C)O [thapsigargin] | activated | activated | activated | activated | vesicles and lysosomes that contain ER components were produced | about 15 minutes | did not include mitochondrial components | specifically colocalized with the endoplasmic reticulum and lysosomes | decreased over time | increased over time | induced | higher density than the endoplasmic reticulum | high-density vesicles were generated | decreased over time | increased over time | decreased |  |
| tunicamycin [TC] |  |  |  |  |  |  |  |  |  |  |  |  |  |  |  |  | the same changes in the vesicles as those upon treatment with thapsigargin occurred |
